Experiments:
[1] = Half life in Beagle dog at 1 mg/kg, iv; assay type: ADME, organism-based, Canis lupus familiaris; parameters: dose 1 mg/kg, route intravenous; conditions: in vivo
[2] = Half life in New Zealand White rabbit at 5 mg/kg, iv; assay type: ADME, organism-based, Oryctolagus cuniculus; parameters: dose 5 mg/kg, route intravenous; conditions: in vivo
Lethal factor = target: T1, Lethal factor (Bacillus anthracis, UniProt P15917); test: Inhibition of LF; conditions: read-out: IC50
T1 sequence (P15917 whole entry): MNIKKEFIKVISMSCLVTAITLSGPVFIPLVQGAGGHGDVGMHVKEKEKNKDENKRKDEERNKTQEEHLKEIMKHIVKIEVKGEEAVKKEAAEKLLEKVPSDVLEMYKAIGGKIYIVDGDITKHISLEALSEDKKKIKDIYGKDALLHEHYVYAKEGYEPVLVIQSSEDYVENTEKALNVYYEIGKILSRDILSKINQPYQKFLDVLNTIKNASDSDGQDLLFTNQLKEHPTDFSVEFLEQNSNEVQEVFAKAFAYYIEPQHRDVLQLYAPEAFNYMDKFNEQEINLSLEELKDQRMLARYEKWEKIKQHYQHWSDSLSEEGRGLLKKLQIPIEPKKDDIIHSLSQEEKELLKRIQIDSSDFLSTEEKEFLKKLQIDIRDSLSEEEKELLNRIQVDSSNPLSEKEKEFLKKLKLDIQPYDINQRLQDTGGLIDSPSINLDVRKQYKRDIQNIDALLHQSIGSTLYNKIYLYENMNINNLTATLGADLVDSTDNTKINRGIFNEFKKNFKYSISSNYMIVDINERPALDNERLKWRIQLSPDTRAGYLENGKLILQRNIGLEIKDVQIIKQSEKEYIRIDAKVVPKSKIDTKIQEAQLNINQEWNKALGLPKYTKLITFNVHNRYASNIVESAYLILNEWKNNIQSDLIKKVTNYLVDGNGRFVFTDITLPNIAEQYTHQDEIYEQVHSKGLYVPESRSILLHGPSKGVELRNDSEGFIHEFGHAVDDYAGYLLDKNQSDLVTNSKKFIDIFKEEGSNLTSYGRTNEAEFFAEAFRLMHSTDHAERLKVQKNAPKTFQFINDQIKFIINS

[3] = target: Matrix metalloproteinase-9 (Homo sapiens, UniProt P14780); test: Inhibition of MMP9
[4] = Bioavailability in rhesus monkey […], po; assay type: ADME, organism-based, Macaca mulatta; conditions: in vivo
[5] = Clearance in New Zealand White rabbit at 5 mg/kg, iv; assay type: ADME, organism-based, Oryctolagus cuniculus; parameters: dose 5 mg/kg, route intravenous; conditions: in vivo
[6] = Half life in BALB/c mice at 10 mg/kg, iv; assay type: ADME, organism-based; parameters: dose 10 mg/kg, route intravenous; conditions: mouse, in vivo
[7] = Volume of distribution in Guinea pig at 2 mg/kg, iv; assay type: ADME, organism-based, Cavia porcellus; parameters: dose 2 mg/kg, route intravenous; conditions: in vivo, read-out: Vdss
[8] = Clearance in Dutch Belted rabbit at 2 mg/kg, iv; assay type: ADME, organism-based, Oryctolagus cuniculus; parameters: dose 2 mg/kg, route intravenous; conditions: in vivo
Neprilysin = Neprilysin (Homo sapiens, UniProt P08473); test: Inhibition of NEP
[9] = Half life in Sprague-Dawley rat at 1 mg/kg, iv; assay type: ADME, organism-based; parameters: dose 1 mg/kg, route intravenous; conditions: in vivo
[10] = Volume of distribution in New Zealand White rabbit at 5 mg/kg, iv; assay type: ADME, organism-based, Oryctolagus cuniculus; parameters: dose 5 mg/kg, route intravenous; conditions: in vivo, read-out: Vdss
[11] = Bioavailability in Beagle dog […], po; assay type: ADME, organism-based, Canis lupus familiaris; conditions: in vivo
[12] = Cmax in BALB/c mice at 10 mg/kg, iv; assay type: ADME, organism-based; parameters: dose 10 mg/kg, route intravenous; conditions: mouse, in vivo
[13] = Cmax in Guinea pig at 2 mg/kg, iv; assay type: ADME, organism-based, Cavia porcellus; parameters: dose 2 mg/kg, route intravenous; conditions: in vivo
[14] = Volume of distribution in rhesus monkey at 1 mg/kg, iv; assay type: ADME, organism-based, Macaca mulatta; parameters: dose 1 mg/kg, route intravenous; conditions: in vivo, read-out: Vdss
[15] = Tmax in Dutch Belted rabbit at 2 mg/kg, iv; assay type: ADME, organism-based, Oryctolagus cuniculus; parameters: dose 2 mg/kg, route intravenous; conditions: in vivo
[16] = Cmax in Sprague-Dawley rat at 1 mg/kg, iv; assay type: ADME, organism-based; parameters: dose 1 mg/kg, route intravenous; conditions: in vivo
[17] = Bioavailability in Guinea pig at 1 mg/ml, po; assay type: ADME, organism-based, Cavia porcellus; conditions: in vivo
[18] = Half life in Dutch Belted rabbit at 2 mg/kg, iv; assay type: ADME, organism-based, Oryctolagus cuniculus; parameters: dose 2 mg/kg, route intravenous; conditions: in vivo
[19] = Bioavailability in BALB/c mice […], po; assay type: ADME, organism-based; conditions: mouse, in vivo
[20] = target: 72 kDa type IV collagenase (Homo sapiens, UniProt P08253); test: Inhibition of MMP2
[21] = Bioavailability in Sprague-Dawley rat at 2 mg/ml, po; assay type: ADME, organism-based; conditions: in vivo
[22] = Volume of distribution in BALB/c mice at 10 mg/kg, iv; assay type: ADME, organism-based; parameters: dose 10 mg/kg, route intravenous; conditions: mouse, in vivo, read-out: Vdss
[23] = target: Matrix metalloproteinase-14 (Homo sapiens, UniProt P50281); test: Inhibition of MMP14
[24] = Half life in Guinea pig at 2 mg/kg, iv; assay type: ADME, organism-based, Cavia porcellus; parameters: dose 2 mg/kg, route intravenous; conditions: in vivo

Matrix metalloproteinase-9, sequence (P14780 whole entry): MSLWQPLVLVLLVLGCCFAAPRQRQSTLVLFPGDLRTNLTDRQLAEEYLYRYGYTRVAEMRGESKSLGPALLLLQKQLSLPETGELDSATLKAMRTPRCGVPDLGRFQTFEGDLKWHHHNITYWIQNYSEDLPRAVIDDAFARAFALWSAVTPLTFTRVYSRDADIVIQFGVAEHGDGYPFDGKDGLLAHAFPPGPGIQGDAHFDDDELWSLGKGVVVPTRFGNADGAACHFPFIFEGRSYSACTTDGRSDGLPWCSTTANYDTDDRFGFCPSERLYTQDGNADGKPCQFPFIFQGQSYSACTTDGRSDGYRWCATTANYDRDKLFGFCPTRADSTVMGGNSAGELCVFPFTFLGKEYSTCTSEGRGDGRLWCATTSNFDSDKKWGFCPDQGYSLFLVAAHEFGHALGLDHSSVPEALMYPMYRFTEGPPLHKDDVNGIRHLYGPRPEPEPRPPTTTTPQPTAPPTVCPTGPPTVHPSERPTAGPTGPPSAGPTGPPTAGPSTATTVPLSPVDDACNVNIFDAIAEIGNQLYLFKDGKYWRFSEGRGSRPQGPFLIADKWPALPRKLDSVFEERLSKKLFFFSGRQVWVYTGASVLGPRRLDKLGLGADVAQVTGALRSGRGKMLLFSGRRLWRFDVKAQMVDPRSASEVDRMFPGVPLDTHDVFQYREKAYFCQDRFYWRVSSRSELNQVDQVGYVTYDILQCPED
72 kDa type IV collagenase, sequence (P08253 whole entry): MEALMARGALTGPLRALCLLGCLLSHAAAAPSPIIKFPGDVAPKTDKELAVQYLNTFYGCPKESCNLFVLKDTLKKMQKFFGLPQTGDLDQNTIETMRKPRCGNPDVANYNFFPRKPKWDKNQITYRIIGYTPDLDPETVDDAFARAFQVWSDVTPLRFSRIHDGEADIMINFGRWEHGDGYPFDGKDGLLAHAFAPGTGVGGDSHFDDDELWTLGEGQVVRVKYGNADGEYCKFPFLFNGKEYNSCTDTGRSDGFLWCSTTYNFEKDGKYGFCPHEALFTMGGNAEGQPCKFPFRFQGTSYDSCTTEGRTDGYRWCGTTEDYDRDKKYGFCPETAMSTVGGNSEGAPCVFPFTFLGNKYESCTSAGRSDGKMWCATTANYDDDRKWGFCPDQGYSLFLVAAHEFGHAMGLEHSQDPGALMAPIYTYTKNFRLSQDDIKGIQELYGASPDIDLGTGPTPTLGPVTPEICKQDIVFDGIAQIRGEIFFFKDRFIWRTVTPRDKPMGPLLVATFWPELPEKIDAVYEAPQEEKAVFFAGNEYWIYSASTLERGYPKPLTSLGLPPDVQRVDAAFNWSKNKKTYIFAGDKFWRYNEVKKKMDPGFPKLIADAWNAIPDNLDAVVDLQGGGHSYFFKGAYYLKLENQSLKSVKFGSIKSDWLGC
Neprilysin, sequence (P08473 whole entry): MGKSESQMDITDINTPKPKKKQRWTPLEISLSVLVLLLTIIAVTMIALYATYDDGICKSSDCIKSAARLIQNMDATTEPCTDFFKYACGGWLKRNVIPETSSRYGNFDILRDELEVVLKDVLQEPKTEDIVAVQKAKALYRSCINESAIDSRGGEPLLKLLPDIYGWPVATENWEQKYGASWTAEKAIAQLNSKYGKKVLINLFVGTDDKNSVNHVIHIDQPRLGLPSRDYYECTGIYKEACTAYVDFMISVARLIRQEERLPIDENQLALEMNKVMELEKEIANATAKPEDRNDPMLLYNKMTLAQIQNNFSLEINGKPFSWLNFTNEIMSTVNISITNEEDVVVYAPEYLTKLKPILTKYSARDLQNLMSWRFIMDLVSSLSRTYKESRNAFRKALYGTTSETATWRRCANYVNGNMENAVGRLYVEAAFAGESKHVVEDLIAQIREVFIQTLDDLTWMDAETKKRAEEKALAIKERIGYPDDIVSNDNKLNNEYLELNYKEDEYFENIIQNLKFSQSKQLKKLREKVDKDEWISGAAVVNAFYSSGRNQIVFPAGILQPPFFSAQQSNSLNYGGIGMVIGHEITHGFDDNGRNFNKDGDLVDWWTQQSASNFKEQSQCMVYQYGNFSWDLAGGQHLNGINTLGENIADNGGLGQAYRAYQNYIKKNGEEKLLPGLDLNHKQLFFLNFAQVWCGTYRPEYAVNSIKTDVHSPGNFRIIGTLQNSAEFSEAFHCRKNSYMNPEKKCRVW

`Cc1cc(S(=O)(=O)N[C@@H](C(=O)NO)C2CCOCC2)ccc1F` showed a half-life [1] of 4.7 h, a half-life [2] of 2.5 h and an IC50 (Lethal factor) of 0.054 µM. For the same compound, the IC50 [3] was 2 µM, the bioavailability [4] was 16% and the clearance [5] was 35 mL/min/kg. For the same compound, the half-life [6] was 0.4 h, the Vd [7] was 1.1 L/kg and the clearance [8] was 14 mL/min/kg. The IC50 (Neprilysin) was 9.4 µM, the half-life [9] was 1.4 h and the Vd [10] was 3.8 L/kg. It also gave a bioavailability [11] of 57%, a Cmax [12] of 120 nM and a Cmax [13] of 250 nM. For the same compound, the Vd [14] was 3.3 L/kg, the Tmax [15] was 0.3 h and the Cmax [16] was 240 nM. For the same compound, the bioavailability [17] was 22%, the half-life [18] was 2 h and the bioavailability [19] was 20%. For the same compound, the IC50 [20] was 2 µM, the bioavailability [21] was 71% and the Vd [22] was 1 L/kg. It also gave an IC50 [23] of 6.5 µM and a half-life [24] of 1.2 h.
